# Reference: the NIST ThermoML archive (doi:10.1016/j.tca.2017.09.023)
# Where “and” joins values, the source holds several entries; their conditions need not be identical. Equal values may be shown once. Numbers after ± are expanded uncertainties.
# Key:
# [1] = for Normal melting temperature: DTA; for Triple point temperature: DSC
# [2] = Molar enthalpy of transition or fusion; details: DSC
Normal melting temperature ([1]; Crystal 1),Triple point temperature ([1]; Crystal 2) [K],Molar enthalpy of transition or fusion ([2]; Crystal 2) [kcal/mol],Triple point temperature ([1]; Crystal 3) [K],Molar enthalpy of transition or fusion ([2]; Crystal 3) [kcal/mol],SMILES,Molar enthalpy of transition or fusion ([2]; Crystal) [kcal/mol],Normal melting temperature ([1]; Crystal)
163.0 ± 1.1 °C,411.6 ± 1.2,1.03 ± 0.335,,,Cc1c(C)c(C)c(Br)c(C)c1C [bromopentamethylbenzene],3.61 ± 0.359,
,,,,,Clc1c(Cl)c(Cl)c(Cl)c(Cl)c1Cl [hexachlorobenzene],5.72 ± 0.311,230.1 ± 2 °C and 231 ± 1.1 °C
166.1 ± 1.1 °C and 167.5 ± 2 °C,384.9 ± 1.2,0.399 ± 0.335,117.4 ± 1.2,0.136 ± 0.335,Cc1c(C)c(C)c(C)c(C)c1C [hexamethylbenzene],4.91 ± 0.359,
,,,,,c1ccc(-c2ccccc2-c2ccccc2)cc1 [o-terphenyl],,57.2 ± 2 °C
,,,,,Nc1c(Cl)c(Cl)c(Cl)c(Cl)c1Cl [pentachlorobenzenamine],4.42 ± 0.311,235.4 ± 1.1 °C
